Measured values reported in patent publication US20250188092A1, “RIFAMYCIN ANALOGS” (THE REGENTS OF THE UNIVERSITY OF MICHIGAN, priority 2021, published 2025).
“And” between values parts separate entries of the source, which are not always exact repeats. Equal entries are not always repeated. Where two headings read alike, the source gives them in different places.

Experiments:
[1] = type: in vivo, BALB/c mice
Description: For i.v. dosing, the vehicle DMSO/PEG-400/PBS (1×) (5/60/35) was used. Female ˜20 g BALB/c mice (7-9 weeks old) were used in the study. Three mice were used for each set of conditions. […] Plasma concentrations were determined over 24 hrs in the single day study and on days 1 and 5 in the 5 day study. Lung exposure was also determined in the 1 day study at 24 hrs post dosing and on day 5 of the 5 day study at 4 hrs and 24 hrs post dosing. Compound concentrations were determined by reverse phase HPLC-MS against a standard curve.

VERO cells (ATCC CRL-81) = assay: Vero cell toxicity; type: cell-based; settings: Chlorocebus sabaeus, Vero; 72 hours exposure
Description: Cytotoxicity for a mammalian cell line was determined by exposing VERO cells (ATCC CRL-81) to serial dilutions of test compounds for 72 hours, followed by addition of resazurin and measurement of fluorescence after 4 hours incubation (Choules, et al., Antimnicrob. Agents Chemother. 2019, 63, e02204-02218).

M. tuberculosis Erdman = assay: Mouse acute efficacy study (lung CFU); type: in vivo, BALB/c mice
M. tuberculosis H37Rv = assay: Minimum bactericidal concentration (MBC, CFU Assay); type: cell-based, Mycobacterium tuberculosis
[2] = type: in vivo, BALB/c mice; settings: Day 1, Five Day Study, 4 hr
E. coli WT RNAP = biological target: T1, E. coli WT RNAP (Escherichia coli, UniProt P0A8V2); assay: biochemical
T1 construct: made in house
T1 sequence (P0A8V2 whole entry): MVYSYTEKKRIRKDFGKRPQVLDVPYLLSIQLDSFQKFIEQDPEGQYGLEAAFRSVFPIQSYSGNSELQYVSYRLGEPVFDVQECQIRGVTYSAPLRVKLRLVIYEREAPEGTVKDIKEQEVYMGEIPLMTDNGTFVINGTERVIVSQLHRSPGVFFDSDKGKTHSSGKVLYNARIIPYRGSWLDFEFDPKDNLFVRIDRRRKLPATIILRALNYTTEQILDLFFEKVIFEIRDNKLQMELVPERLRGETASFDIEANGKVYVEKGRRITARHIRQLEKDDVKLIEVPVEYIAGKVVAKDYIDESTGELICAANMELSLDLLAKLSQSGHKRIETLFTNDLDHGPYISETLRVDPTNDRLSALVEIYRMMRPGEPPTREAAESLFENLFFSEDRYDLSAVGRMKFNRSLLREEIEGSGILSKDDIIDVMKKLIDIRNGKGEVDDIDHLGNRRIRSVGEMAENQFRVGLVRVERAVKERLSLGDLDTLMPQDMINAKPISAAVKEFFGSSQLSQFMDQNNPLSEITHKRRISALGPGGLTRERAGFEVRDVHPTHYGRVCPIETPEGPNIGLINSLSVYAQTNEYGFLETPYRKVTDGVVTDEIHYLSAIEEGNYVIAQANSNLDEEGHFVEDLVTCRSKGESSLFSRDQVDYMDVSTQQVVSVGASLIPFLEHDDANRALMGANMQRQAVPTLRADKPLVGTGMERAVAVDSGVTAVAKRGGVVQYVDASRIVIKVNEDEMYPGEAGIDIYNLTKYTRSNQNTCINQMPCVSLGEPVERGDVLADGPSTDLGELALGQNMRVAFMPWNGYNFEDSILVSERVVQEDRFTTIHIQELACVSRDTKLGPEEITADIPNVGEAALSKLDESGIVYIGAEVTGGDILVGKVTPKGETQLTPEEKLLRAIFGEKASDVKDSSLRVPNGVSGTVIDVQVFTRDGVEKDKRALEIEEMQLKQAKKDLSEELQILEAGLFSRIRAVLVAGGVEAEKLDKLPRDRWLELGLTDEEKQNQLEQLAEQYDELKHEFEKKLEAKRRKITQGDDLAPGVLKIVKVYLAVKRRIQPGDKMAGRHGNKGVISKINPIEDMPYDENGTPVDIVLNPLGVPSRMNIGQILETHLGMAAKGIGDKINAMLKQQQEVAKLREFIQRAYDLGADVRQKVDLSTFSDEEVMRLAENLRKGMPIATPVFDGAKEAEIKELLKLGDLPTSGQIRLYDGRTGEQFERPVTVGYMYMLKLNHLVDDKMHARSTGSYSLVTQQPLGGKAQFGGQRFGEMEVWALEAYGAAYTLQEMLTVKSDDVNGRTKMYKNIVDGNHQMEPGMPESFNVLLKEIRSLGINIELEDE
T1 sequence (P0A8T7 whole entry partner): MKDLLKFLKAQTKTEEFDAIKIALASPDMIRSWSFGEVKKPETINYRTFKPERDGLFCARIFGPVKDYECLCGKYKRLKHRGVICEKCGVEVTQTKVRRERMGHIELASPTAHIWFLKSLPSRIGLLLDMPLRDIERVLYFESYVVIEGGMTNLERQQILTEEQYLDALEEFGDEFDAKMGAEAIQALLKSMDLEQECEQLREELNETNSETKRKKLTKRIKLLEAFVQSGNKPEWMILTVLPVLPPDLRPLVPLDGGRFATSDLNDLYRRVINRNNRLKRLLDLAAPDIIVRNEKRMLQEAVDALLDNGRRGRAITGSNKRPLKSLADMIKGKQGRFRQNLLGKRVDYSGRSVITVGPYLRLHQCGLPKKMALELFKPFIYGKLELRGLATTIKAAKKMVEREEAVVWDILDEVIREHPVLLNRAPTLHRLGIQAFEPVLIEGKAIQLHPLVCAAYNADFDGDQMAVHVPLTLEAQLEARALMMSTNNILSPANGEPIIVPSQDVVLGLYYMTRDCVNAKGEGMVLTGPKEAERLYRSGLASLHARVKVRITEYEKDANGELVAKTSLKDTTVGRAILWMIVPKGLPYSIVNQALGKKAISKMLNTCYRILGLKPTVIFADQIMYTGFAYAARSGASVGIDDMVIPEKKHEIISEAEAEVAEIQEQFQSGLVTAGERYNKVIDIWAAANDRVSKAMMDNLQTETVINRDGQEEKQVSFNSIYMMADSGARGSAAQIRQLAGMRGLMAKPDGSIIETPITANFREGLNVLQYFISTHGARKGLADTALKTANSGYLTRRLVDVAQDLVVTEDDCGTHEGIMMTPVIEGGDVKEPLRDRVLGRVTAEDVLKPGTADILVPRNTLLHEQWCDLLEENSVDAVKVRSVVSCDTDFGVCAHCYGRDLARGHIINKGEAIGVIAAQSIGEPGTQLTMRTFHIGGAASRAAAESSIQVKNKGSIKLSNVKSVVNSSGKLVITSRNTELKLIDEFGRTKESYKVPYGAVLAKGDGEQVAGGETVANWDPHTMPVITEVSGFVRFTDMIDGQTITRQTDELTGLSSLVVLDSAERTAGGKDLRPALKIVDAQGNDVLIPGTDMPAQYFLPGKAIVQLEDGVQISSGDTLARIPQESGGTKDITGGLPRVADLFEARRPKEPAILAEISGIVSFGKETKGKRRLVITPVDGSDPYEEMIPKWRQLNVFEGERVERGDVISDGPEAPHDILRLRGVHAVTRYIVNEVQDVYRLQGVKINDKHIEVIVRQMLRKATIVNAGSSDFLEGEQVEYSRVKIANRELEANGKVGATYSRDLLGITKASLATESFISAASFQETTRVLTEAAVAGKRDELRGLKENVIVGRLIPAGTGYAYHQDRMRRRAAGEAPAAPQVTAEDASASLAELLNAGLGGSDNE
T1 sequence (P0A7Z4 whole entry partner): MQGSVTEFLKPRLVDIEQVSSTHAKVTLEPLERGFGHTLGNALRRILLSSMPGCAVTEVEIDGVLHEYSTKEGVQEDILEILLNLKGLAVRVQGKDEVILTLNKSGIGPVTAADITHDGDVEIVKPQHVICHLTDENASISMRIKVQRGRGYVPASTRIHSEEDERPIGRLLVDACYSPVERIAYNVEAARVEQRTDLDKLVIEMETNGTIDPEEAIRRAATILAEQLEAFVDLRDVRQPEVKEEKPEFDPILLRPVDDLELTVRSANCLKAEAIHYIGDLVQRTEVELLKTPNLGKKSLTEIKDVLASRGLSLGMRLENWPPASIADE
T1 sequence (P0A800 whole entry partner): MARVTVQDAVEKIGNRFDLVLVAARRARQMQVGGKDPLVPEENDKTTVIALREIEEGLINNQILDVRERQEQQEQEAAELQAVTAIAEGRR
T1 sequence (P00579 whole entry partner): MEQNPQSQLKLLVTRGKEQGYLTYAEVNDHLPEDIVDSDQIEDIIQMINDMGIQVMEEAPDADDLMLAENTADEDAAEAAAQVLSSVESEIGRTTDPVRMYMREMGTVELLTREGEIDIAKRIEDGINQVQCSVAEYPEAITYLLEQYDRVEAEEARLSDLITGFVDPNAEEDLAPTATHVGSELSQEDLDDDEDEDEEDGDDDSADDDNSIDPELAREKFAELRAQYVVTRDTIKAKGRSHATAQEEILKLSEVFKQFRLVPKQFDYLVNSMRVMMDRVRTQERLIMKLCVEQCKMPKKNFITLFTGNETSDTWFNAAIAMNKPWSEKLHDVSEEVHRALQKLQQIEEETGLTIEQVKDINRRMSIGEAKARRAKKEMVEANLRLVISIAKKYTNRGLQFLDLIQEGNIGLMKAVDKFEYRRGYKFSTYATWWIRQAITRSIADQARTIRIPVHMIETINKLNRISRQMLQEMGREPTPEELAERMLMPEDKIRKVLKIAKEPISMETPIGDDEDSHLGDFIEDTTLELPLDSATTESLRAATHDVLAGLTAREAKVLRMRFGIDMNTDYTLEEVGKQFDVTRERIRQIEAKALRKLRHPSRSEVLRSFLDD

[3] = Mouse acute efficacy study: mice weight and adverse effects
MTB H37Rv ATCC 27294 = assay: MIC, microplate Alamar Blue assay (MABA); type: cell-based, Mycobacterium tuberculosis
[4] = 100 mg/kg QD, PEG-water vehicle

## CO[C@H]1/C=C/O[C@@]2(C)Oc3c(C)c(O)c4c(=O)c(c5oc6cc(N7CCN(CC(C)C)CC7)cc(OCc7ccc(CN8CCOCC8)cc7)c6nc-5c4c3C2=O)NC(=O)/C(C)=C\C=C\[C@H](C)[C@H](O)[C@@H](C)[C@@H](O)[C@@H](C)[C@H](OC(C)=O)[C@@H]1C [Compound 17e, (7S,9E,11S,12R,13S,14R,15R,16R,17S,18S,19E,21Z)-2,15,17-Trihydroxy-11-methoxy-3,7,12,14,16,18,22-heptamethyl-30-[4-(2-methylpropyl)piperazin-1-yl]-32-({4-[(morpholin-4-yl)methyl]phenyl}methoxy)-6,23,37-trioxo-8,27,38-trioxa-24,34-diazahexacyclo[23.11.1.1^4,7.0^5,36.0^26,35.0^28,33]octatriaconta-1(36)2,4,9,19,21,25,28,30,32,34-undecaen-13-yl acetate]
[1]; Day 1, Five Day Study, 4 hr
  Plasma concentration, Avg: 360 ng/mL and 319 nM
[1]; Day 1, One Day Study, 24 hr
  Lung Homogenate concentration, Avg: 164 ng/mL and 145 nM
  Plasma concentration, Avg: 327 ng/mL and 289 nM
[1]; Day 5, Five Day Study, 4 hr
  Lung Homogenate concentration, Avg: 323 ng/mL and 286 nM
  Plasma concentration, Avg: 688 ng/mL and 608 nM
[1]; Day 5, Five Day Study, 24 hr
  Lung Homogenate concentration, Avg: 41 ng/mL and 36 nM
  Plasma concentration, Avg: 121 ng/mL and 107 nM
VERO cells (ATCC CRL-81)
  IC50: > 10 µM
DPX2 cells; 6.25 μM, 24 h
  DPX2 Viability @ 6.25 μM: 113%
DPX2 cells; human
  DPX2 Viability @ 25 μM: 95%
M. tuberculosis Erdman; 100 mg/kg PO
  effectiveness versus rifampin control at 15 mg/kg in the same vehicle: at least equal in effectiveness
M. tuberculosis Erdman; 100 mg/kg QD, PEG-water vehicle, day 21
  CFU/Mouse: 4,029
M. tuberculosis H37Rv
  MBC better than that of rifampin: ~5 fold
[2]
  Lung Homogenate concentration, Avg: 248 ng/mL and 219 nM
E. coli WT RNAP
  IC50: 0.014 µM
[3]; [4]
  Mice Weight (g) Day 0: 20.4 g
  Mice Weight (g) Day 31: 21.0 g
[3]; 3-week treatment period
  adverse effects noted in the mice: no adverse effects
MTB H37Rv ATCC 27294
  MIC90 MABA Rel to RMP: 0.12
MTB H37Rv ATCC 27294; Mycobacterium tuberculosis, MTB H37Rv ATCC 27294, microplate Alamar Blue assay, lowest concentration giving ≥90% reduction in fluorescence, read-out: MIC90 MABA
  MIC: 5 nM
